The record followed here is US20180007908A1, “Pesticidal Mixtures” (BASF SE, priority 2007, published 2018).

Common to all, as to format: cell-based
The test system of experiment [1] is Pyricularia oryzae. Briefly: microbe, parasite or virus in culture. Conditions: 168 h, read-out: Observed activity (%).
For another experiment, the system named is Botrytis cinerea. Description: Use Example No. 6: activity against gray mold Botrytis cinerea in the microtiter test (Botrci). To be noted: 168 h, day 7 post-inoculation, efficacy as % of untreated control, read-out: Observed activity (%).
For experiment [2], the system named is Pyricularia oryzae. Briefly: microbe, parasite or virus in culture. Conditions: 168 h, read-out: Observed activity (%). The source holds these as a separate data set.

Take `N#Cc1nn(-c2c(Cl)cc(C(F)(F)F)cc2Cl)c(N)c1[S+]([O-])C(F)(F)F` (stereo not drawn) [fipronil]: in the experiment with Pyricularia oryzae [1], the inhibition at 2 ppm was found to be 5%. As for `COC(=O)N(OC)c1ccccc1COc1ccn(-c2ccc(Cl)cc2)n1` [pyraclostrobin], the inhibition at 0.016 ppm in the experiment with Botrytis cinerea is 4%. Moreover, in the experiment on Pyricularia oryzae [2], the inhibition at 0.001 ppm amounted to 31%.
